{"source": "PubChem BioAssay (NCI)", "note": "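Method: 48-hour compound exposure of cells in 96-well plates, five concentrations, linear interpolation of endpoints. TGI is the concentration that stops growth completely.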", "data": [{"tested_on": "SK-OV-3 ovarian", "test": "NCI tumour cell line growth inhibition, 48 h", "units": {"TGI": "µM"}, "values": [{"compound": "O=C(CC(=O)n1nc(-c2ccccc2)c(N=Nc2ccc(Cl)cc2)c1-c1ccccc1)Nc1ccc(Cl)cc1", "TGI": "> 100"}, {"compound": "COC(=O)C12CC3CC(CC(C(=O)O)(C3)C1)C2", "TGI": "> 100"}, {"compound": "CCCCCCc1cc(C(=O)Nc2ccc(Cl)cc2)nc(=S)[nH]1", "TGI": "> 100"}, {"compound": "COc1cc2cc3c4cc(OC)c(OC)cc4cc[n+]3c(C)c2cc1OC", "note": "(tested in a mixture with another compound)", "TGI": "> 100"}, {"compound": "CCN(CC)C1CC(O[C@H]2C[C@](O)(C(=O)CO)Cc3c(O)c4c(c(O)c32)C(=O)c2c(OC)cccc2C4=O)OC(C)C1O", "note": "(stereo partly drawn)", "TGI": 9.62}]}, {"tested_on": "MCF7 breast", "test": "NCI tumour cell line growth inhibition, 48 h", "units": {"TGI": "µM"}, "values": [{"compound": "COc1cc2cc3c4cc(OC)c(OC)cc4cc[n+]3c(C)c2cc1OC", "note": "(tested in a mixture with another compound)", "TGI": "> 100"}]}, {"tested_on": "CAKI-1 renal", "test": "NCI tumour cell line growth inhibition, 48 h", "units": {"TGI": "µM"}, "values": [{"compound": "CC(=O)O[C@H]1CCC2[C@@H]3CC[C@]4(C)CC(=O)C=C[C@]4(C)C3CC[C@@]21C", "note": "(stereo partly drawn)", "TGI": "> 100"}, {"compound": "O=C(CCc1nc(=S)[nH][nH]1)Nc1ccccc1Cl", "TGI": "> 100"}, {"compound": "O=C(CC(=O)n1nc(-c2ccccc2)c(N=Nc2ccc(Cl)cc2)c1-c1ccccc1)Nc1ccc(Cl)cc1", "TGI": "> 100"}, {"compound": "COC(=O)C12CC3CC(CC(C(=O)O)(C3)C1)C2", "TGI": "> 100"}, {"compound": "CCCCCCc1cc(C(=O)Nc2ccc(Cl)cc2)nc(=S)[nH]1", "TGI": "> 100"}, {"compound": "COc1cc2cc3c4cc(OC)c(OC)cc4cc[n+]3c(C)c2cc1OC", "note": "(tested in a mixture with another compound)", "TGI": "> 100"}]}, {"tested_on": "OVCAR-8 ovarian", "test": "NCI tumour cell line growth inhibition, 48 h", "units": {"TGI": "µM"}, "values": [{"compound": "CC(=O)O[C@H]1CCC2[C@@H]3CC[C@]4(C)CC(=O)C=C[C@]4(C)C3CC[C@@]21C", "note": "(stereo partly drawn)", "TGI": 34.2}, {"compound": "O=C(CCc1nc(=S)[nH][nH]1)Nc1ccccc1Cl", "TGI": "> 100"}, {"compound": "O=C(CC(=O)n1nc(-c2ccccc2)c(N=Nc2ccc(Cl)cc2)c1-c1ccccc1)Nc1ccc(Cl)cc1", "TGI": "> 100"}, {"compound": "COC(=O)C12CC3CC(CC(C(=O)O)(C3)C1)C2", "TGI": "> 100"}, {"compound": "COc1cc2cc3c4cc(OC)c(OC)cc4cc[n+]3c(C)c2cc1OC", "note": "(tested in a mixture with another compound)", "TGI": "> 100"}, {"compound": "CCN(CC)C1CC(O[C@H]2C[C@](O)(C(=O)CO)Cc3c(O)c4c(c(O)c32)C(=O)c2c(OC)cccc2C4=O)OC(C)C1O", "note": "(stereo partly drawn)", "TGI": 0.565}]}, {"tested_on": "DMS 114 small cell lung", "test": "NCI tumour cell line growth inhibition, 48 h", "units": {"TGI": "µM"}, "values": [{"compound": "CC(=O)O[C@H]1CCC2[C@@H]3CC[C@]4(C)CC(=O)C=C[C@]4(C)C3CC[C@@]21C", "note": "(stereo partly drawn)", "TGI": 24.2}, {"compound": "O=C(CCc1nc(=S)[nH][nH]1)Nc1ccccc1Cl", "TGI": "> 100"}, {"compound": "O=C(CC(=O)n1nc(-c2ccccc2)c(N=Nc2ccc(Cl)cc2)c1-c1ccccc1)Nc1ccc(Cl)cc1", "TGI": "> 56.9"}, {"compound": "COc1cc2cc3c4cc(OC)c(OC)cc4cc[n+]3c(C)c2cc1OC", "note": "(tested in a mixture with another compound)", "TGI": "> 100"}, {"compound": "CCN(CC)C1CC(O[C@H]2C[C@](O)(C(=O)CO)Cc3c(O)c4c(c(O)c32)C(=O)c2c(OC)cccc2C4=O)OC(C)C1O", "note": "(stereo partly drawn)", "TGI": 0.274}]}, {"tested_on": "ACHN renal", "test": "NCI tumour cell line growth inhibition, 48 h", "units": {"TGI": "µM"}, "values": [{"compound": "CC(=O)O[C@H]1CCC2[C@@H]3CC[C@]4(C)CC(=O)C=C[C@]4(C)C3CC[C@@]21C", "note": "(stereo partly drawn)", "TGI": "> 100"}, {"compound": "O=C(CCc1nc(=S)[nH][nH]1)Nc1ccccc1Cl", "TGI": "> 100"}, {"compound": "O=C(CC(=O)n1nc(-c2ccccc2)c(N=Nc2ccc(Cl)cc2)c1-c1ccccc1)Nc1ccc(Cl)cc1", "TGI": "> 100"}, {"compound": "COC(=O)C12CC3CC(CC(C(=O)O)(C3)C1)C2", "TGI": "> 100"}, {"compound": "COc1cc2cc3c4cc(OC)c(OC)cc4cc[n+]3c(C)c2cc1OC", "note": "(tested in a mixture with another compound)", "TGI": "> 100"}, {"compound": "CCN(CC)C1CC(O[C@H]2C[C@](O)(C(=O)CO)Cc3c(O)c4c(c(O)c32)C(=O)c2c(OC)cccc2C4=O)OC(C)C1O", "note": "(stereo partly drawn)", "TGI": 0.208}]}, {"tested_on": "MOLT-4 leukemia", "test": "NCI tumour cell line growth inhibition, 48 h", "units": {"TGI": "µM"}, "values": [{"compound": "CC(=O)O[C@H]1CCC2[C@@H]3CC[C@]4(C)CC(=O)C=C[C@]4(C)C3CC[C@@]21C", "note": "(stereo partly drawn)", "TGI": 47.9}, {"compound": "O=C(CCc1nc(=S)[nH][nH]1)Nc1ccccc1Cl", "TGI": "> 100"}, {"compound": "O=C(CC(=O)n1nc(-c2ccccc2)c(N=Nc2ccc(Cl)cc2)c1-c1ccccc1)Nc1ccc(Cl)cc1", "TGI": "> 100"}, {"compound": "COC(=O)C12CC3CC(CC(C(=O)O)(C3)C1)C2", "TGI": "> 100"}, {"compound": "CCCCCCc1cc(C(=O)Nc2ccc(Cl)cc2)nc(=S)[nH]1", "TGI": "> 100"}, {"compound": "COc1cc2cc3c4cc(OC)c(OC)cc4cc[n+]3c(C)c2cc1OC", "note": "(tested in a mixture with another compound)", "TGI": "> 100"}, {"compound": "CCN(CC)C1CC(O[C@H]2C[C@](O)(C(=O)CO)Cc3c(O)c4c(c(O)c32)C(=O)c2c(OC)cccc2C4=O)OC(C)C1O", "note": "(stereo partly drawn)", "TGI": 1.17}]}, {"tested_on": "M19-MEL melanoma", "test": "NCI tumour cell line growth inhibition, 48 h", "units": {"TGI": "µM"}, "values": [{"compound": "CC(=O)O[C@H]1CCC2[C@@H]3CC[C@]4(C)CC(=O)C=C[C@]4(C)C3CC[C@@]21C", "note": "(stereo partly drawn)", "TGI": 34.7}, {"compound": "O=C(CCc1nc(=S)[nH][nH]1)Nc1ccccc1Cl", "TGI": "> 100"}, {"compound": "O=C(CC(=O)n1nc(-c2ccccc2)c(N=Nc2ccc(Cl)cc2)c1-c1ccccc1)Nc1ccc(Cl)cc1", "TGI": "> 76.2"}, {"compound": "COC(=O)C12CC3CC(CC(C(=O)O)(C3)C1)C2", "TGI": "> 100"}, {"compound": "COc1cc2cc3c4cc(OC)c(OC)cc4cc[n+]3c(C)c2cc1OC", "note": "(tested in a mixture with another compound)", "TGI": "> 100"}, {"compound": "CCN(CC)C1CC(O[C@H]2C[C@](O)(C(=O)CO)Cc3c(O)c4c(c(O)c32)C(=O)c2c(OC)cccc2C4=O)OC(C)C1O", "note": "(stereo partly drawn)", "TGI": 0.167}]}, {"tested_on": "KM12 colon", "test": "NCI tumour cell line growth inhibition, 48 h", "units": {"TGI": "µM"}, "values": [{"compound": "CC(=O)O[C@H]1CCC2[C@@H]3CC[C@]4(C)CC(=O)C=C[C@]4(C)C3CC[C@@]21C", "note": "(stereo partly drawn)", "TGI": 44.3}, {"compound": "O=C(CCc1nc(=S)[nH][nH]1)Nc1ccccc1Cl", "TGI": "> 100"}, {"compound": "O=C(CC(=O)n1nc(-c2ccccc2)c(N=Nc2ccc(Cl)cc2)c1-c1ccccc1)Nc1ccc(Cl)cc1", "TGI": "> 100"}, {"compound": "COC(=O)C12CC3CC(CC(C(=O)O)(C3)C1)C2", "TGI": "> 100"}, {"compound": "CCCCCCc1cc(C(=O)Nc2ccc(Cl)cc2)nc(=S)[nH]1", "TGI": "> 100"}, {"compound": "COc1cc2cc3c4cc(OC)c(OC)cc4cc[n+]3c(C)c2cc1OC", "note": "(tested in a mixture with another compound)", "TGI": "> 100"}]}]}
